According to patent US4826814A, “Tripeptide derivatives” (Dainippon Pharmaceutical Co., Ltd., priority 1986, dated 1989):
pIC50: −log10 of the molar value. Starred links: 1 amine or outer side, 2 acyl side, 3 side chain; linkers in the order of their positions; H or OH if unused. Non-standard residues stand in square brackets, D forms with d. Residues, ends and D or L forms follow the SMILES beside them. *: point of attachment. d(γGlu) = O=C(O)[C@@H](CCC(=O)[*:2])N[*:1]; Oic = O=C(O)[C@@H]1C[C@@H]2CCCC[C@@H]2N1; Nicotinoyl = O=C(c1cccnc1)*; Cbz = O=C(OCc1ccccc1)*

Tests used:
[1] = system: renal hypertensive rats; assay: Antihypertensive activity after single oral administration in two-kidney Goldblatt type renal hypertensive rats (tail-cuff blood pressure); assay type: in vivo, rat; conditions: for Charge in pressure at 9 hours administration: blood pressure, renal hypertensive rats, single oral administration; for antihypertensive action after oral administration: in vivo test with rats
Description: Male Sprague Dawley rats (5 weeks old) were subjected to constriction of the left renal artery with a silver clip (internal diameter: 0.22 mm) under light ether anesthesia. The right kidney and renal artery were left intact. About 6-10 weeks after clipping, rats showing a blood pressure above 180 mmHg were used. These treated rats are named two-kidney Goldblatt type renal hypertensive rats and considered as a typical model of reninangiotensin dependent hypertension.
The blood pressure was measured by a tail-cuff method using a programmed electro-sphygmomanometer (PE-300, Narco Biosystem, U. S. A.) after warming at 38° C. for 10 minutes in heating box.
The antihypertensive activity of test compounds was evaluated after single oral administration in renal hypertensive rats (3-5 rats/group).

[2] = biological target: T1, ACE preparation (rabbit lung) (Oryctolagus cuniculus, UniProt P12822); assay: In vitro ACE inhibitory activity (hippuryl-L-histidyl-L-leucine substrate); assay type: biochemical; conditions: 37° C., 30 minutes, pH 8.3
T1 construct: an ACE preparation (rabbit lung); from tissue; host or cells: rabbit lung
T1 sequence (P12822 34-1310): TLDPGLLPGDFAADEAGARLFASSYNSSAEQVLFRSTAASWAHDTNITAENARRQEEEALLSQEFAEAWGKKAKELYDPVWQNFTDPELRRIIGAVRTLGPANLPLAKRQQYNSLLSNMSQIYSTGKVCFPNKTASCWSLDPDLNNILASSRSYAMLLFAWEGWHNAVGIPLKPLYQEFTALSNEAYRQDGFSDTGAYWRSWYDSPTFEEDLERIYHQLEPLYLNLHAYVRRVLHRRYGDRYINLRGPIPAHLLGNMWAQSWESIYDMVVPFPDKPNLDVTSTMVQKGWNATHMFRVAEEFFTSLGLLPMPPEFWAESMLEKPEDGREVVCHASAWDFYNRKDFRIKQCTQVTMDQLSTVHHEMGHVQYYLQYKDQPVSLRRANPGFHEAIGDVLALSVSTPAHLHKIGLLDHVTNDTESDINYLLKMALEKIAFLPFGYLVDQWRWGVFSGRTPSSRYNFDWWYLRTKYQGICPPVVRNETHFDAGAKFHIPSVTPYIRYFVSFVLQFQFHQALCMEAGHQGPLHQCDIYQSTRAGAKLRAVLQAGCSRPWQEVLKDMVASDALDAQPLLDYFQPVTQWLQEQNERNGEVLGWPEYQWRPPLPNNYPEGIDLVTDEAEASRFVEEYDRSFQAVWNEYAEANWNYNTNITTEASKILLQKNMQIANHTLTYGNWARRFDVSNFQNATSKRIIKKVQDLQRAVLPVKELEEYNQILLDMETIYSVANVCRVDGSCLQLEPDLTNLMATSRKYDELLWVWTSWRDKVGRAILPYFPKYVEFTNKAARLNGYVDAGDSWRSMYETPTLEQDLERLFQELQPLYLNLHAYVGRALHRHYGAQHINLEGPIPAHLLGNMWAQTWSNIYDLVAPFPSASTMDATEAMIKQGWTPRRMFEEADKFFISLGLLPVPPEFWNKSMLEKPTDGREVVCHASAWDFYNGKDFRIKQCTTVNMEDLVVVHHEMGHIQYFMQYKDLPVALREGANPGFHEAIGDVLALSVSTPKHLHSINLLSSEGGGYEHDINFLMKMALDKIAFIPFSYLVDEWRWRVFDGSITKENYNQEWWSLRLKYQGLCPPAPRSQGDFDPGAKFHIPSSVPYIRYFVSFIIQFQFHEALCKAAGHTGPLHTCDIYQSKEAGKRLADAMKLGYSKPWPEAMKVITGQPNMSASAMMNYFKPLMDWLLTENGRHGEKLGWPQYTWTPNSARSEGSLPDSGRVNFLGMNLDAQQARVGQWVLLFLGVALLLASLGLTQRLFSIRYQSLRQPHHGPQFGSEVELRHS
Description: The assay medium contained an ACE preparation (rabbit lung), synthetic substrate (hippuryl-L-histidyl-L-leucine 5 mM), NaCl (300 mM) and phosphate buffer (100 mM, pH 8.3). It was mixed to a final volume of 0.300 ml and incubated at 37° C. for 30 minutes in the presence or absence of test compounds. After the reaction was terminated by adding 300 μl of 1N HCl, hippuric acid formed was extracted with 2 volume of ethyl acetate. After ethyl acetate was evaporated and distilled water was added, the hippuric acid was determined from its absorbance at 228 nm by spectrophotometer (Hitachi 100-41).
The degree of ACE inhibition was calculated from activities with and without test compounds. The IC50 value (molar concentration required for the 50% inhibition of ACE activity) was obtained from a dose-inhibition curve.

[3] = system: Male STD-ddy strain mice; assay: Toxicity: oral LD50 in mice; assay type: in vivo
Description: Male STD-ddy strain mice weighing about 22 to 25 g were used.

[4] = biological target: angiotensin converting enzyme (ACE) (Homo sapiens, UniProt P12821); conditions: stated by the publication of Ksander et al.; cited from earlier work
Sequence of angiotensin converting enzyme (ACE) (P12821 30-1306, species assumed): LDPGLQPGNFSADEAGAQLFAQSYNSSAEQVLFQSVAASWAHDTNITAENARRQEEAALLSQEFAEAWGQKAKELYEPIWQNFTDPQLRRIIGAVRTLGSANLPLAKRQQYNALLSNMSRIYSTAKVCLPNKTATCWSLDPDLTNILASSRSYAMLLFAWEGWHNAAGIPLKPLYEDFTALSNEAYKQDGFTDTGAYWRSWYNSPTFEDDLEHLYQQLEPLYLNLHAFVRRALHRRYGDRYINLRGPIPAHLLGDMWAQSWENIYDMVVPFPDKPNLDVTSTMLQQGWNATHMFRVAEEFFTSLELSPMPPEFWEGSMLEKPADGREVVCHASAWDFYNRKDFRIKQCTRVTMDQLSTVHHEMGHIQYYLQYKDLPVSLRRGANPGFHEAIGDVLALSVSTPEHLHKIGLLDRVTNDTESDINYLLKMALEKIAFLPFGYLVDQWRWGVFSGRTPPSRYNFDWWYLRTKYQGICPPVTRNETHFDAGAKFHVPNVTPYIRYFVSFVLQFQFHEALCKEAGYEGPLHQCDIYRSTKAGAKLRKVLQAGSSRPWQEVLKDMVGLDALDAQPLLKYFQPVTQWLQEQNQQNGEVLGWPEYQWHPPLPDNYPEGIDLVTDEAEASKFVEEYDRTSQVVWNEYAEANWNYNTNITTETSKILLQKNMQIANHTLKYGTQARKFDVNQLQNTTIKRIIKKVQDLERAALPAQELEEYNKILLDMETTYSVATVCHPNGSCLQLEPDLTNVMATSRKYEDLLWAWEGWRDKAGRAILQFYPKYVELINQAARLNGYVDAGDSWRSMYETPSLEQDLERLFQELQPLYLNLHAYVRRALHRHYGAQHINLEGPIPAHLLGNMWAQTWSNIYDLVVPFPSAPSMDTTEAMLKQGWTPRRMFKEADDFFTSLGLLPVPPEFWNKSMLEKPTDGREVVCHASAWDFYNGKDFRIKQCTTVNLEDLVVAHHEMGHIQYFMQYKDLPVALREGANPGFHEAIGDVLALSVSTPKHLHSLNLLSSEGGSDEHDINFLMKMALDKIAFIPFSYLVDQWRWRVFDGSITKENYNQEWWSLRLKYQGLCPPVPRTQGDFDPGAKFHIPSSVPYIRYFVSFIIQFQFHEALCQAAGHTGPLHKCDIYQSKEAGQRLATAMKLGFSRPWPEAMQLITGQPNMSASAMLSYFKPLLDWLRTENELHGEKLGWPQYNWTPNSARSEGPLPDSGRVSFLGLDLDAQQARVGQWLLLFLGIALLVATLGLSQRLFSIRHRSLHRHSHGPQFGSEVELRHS

pIC50 [2]	SMILES	Charge in pressure at 9 hours administration ([1]; dose of 10 mg/kg)	other results
	NCCCC[C@H](NC(=O)OC1CCCC1)C(=O)N[C@H](CCC(=O)N1[C@H](C(=O)O)C[C@@H]2CCCC[C@@H]21)C(=O)O [Example 30, (2S,3aS,7aS)-1-(N^2 -Cyclopentyloxycarbonyl-L-lysyl-gamma-D-glytamyl)octahydro-1H-indole-2-carboxylic acid]	-38	
	NCCCC[C@H](NC(=O)OCc1ccccc1)C(=O)N[C@H](CCC(=O)N1[C@H](C(=O)O)C[C@@H]2CCCC[C@@H]21)C(=O)O [Example 11, (2S,3aS,7aS)-1-(N^2 -Benzyloxycarboxyl-L-lysyl-gamma-D-glutamyl)octahydro-1H-indole-2-carboxylic acid] (Cbz-Lys-[d(γGlu)]-[Oic]-OH)	-37	
	NCCCC[C@H](NC(=O)c1ccncc1)C(=O)N[C@H](CCC(=O)N1[C@H](C(=O)O)C[C@@H]2CCCC[C@@H]21)C(=O)O [Example 29, (2S,3aS,7aS)-1-(N^2 -Isonicotinoyl-L-lysyl-gamma-D-glutamyl)octoahydro-1H-indole-2-carboxylic acid]	-38	
	NCCC[S+]([O-])C[C@H](NC(=O)OCc1ccccc1)C(=O)N[C@H](CCC(=O)N1[C@H](C(=O)O)C[C@@H]2CCCC[C@@H]21)C(=O)O (stereo partly drawn) [Example 76, (2S,3aS,7aS)-1-[N-Benzyloxycarbonyl-S-(3-aminopropyl)-L-cysteinyl-gamma-D-glutamyl]octahydro-1H-indole-2-carboxylic acid sulfoxide]	-31	
	NCCCC[C@H](NC(=O)C1CCC1)C(=O)N[C@H](CCC(=O)N1[C@H](C(=O)O)C[C@@H]2CCCC[C@@H]21)C(=O)O [Example 18, (2S,3aS,7aS)-1-(N^2 -Cyclobutanecarbonyl-L-lysl-gamma-D-glutamyl)octahydro-1H-indole-2-carboxylic acid]	-42	
	NCCCC[C@H](NC(=O)OCCc1ccccn1)C(=O)N[C@H](CCC(=O)N1c2ccccc2C[C@H]1C(=O)O)C(=O)O [Example 38, 1-[N^2-(2-Pyridineethoxycarbonyl)-L-lysyl-gamma-D-glutamyl]indoline-2(S)-carboxylic acid]	-27	
8.34	NCCCC[C@H](NC(=O)OC1CCC1)C(=O)N[C@H](CCC(=O)N1[C@H](C(=O)O)C[C@@H]2CCCC[C@@H]21)C(=O)O [Example 32, (2S,3aS,7aS)-1-[N^2-(Cyclobutyloxycarbonyl)-L-lysyl-gamma-D-glutamyl]octahydro-1H-indole-2-carboxylic acid]		
8.34	NCCCC[C@H](NC(=O)c1cnc2ccccc2c1)C(=O)N[C@H](CCC(=O)N1[C@H](C(=O)O)C[C@@H]2CCCC[C@@H]21)C(=O)O [Example 53, (2S,3aS,7aS)-1-[N^2-(3-Quinolinecarbonyl)-L-lysyl-gamma-D-glutamyl]octahydro-1H-indole-2-carboxylic acid]		
	O=C(NCCCC[C@H](NC(=O)OCc1ccccc1)C(=O)N[C@H](CCC(=O)N1c2ccccc2C[C@H]1C(=O)O)C(=O)O)OCc1ccccc1 [1-(N^2,N^6dibenzyloxycarbonyl-L-lysyl-γ-D-glutamyl)indoline-2(S)carboxylic acid, reference compound]		Charge in pressure at 9 hours administration ([1]; dose of 30 mg/kg): -2; antihypertensive action after oral administration [1]: do not show any significant antihypertensive action; in vitro inhibition of ACE [4]: show in vitro inhibition of ACE
7.96	NCCCC[C@H](NC(=O)c1cccnc1)C(=O)N[C@H](CCC(=O)N1c2ccccc2C[C@H]1C(=O)O)C(=O)O [Example 35, 1-(N^2 -Nicotinoyl-L-lysyl-gamma-D-glutamyl)indoline-2(S)-carboxylic acid]		
8.29	NCCCC[C@H](NC(=O)OC1CCCC1)C(=O)N[C@H](CCC(=O)N1c2ccccc2C[C@H]1C(=O)O)C(=O)O [Example 37, 1-(N^2 -Cyclopentyloxycarbonyl-L-lysyl-gamma-D-glutamyl)indoline-2(S)-carboxylic acid]		
7.02	NCCCC[C@H](NC(=O)C=Cc1c[nH]cn1)C(=O)N[C@H](CCC(=O)N1c2ccccc2C[C@H]1C(=O)O)C(=O)O [Example 10, 1-{N^2-[3-(4-Imidazolyl)-propenoyl]-L-lysyl-gamma-D-glutamyl}indoline-2(S)-carboxylic acid]		
7.89	NCCCC[C@H](NC(=O)OCC1CCCCC1)C(=O)N[C@H](CCC(=O)N1c2ccccc2C[C@H]1C(=O)O)C(=O)O [Example 16, 1-(N^2 -Cyclohexylmethoxycarbonyl-L-lysyl-gamma-D-glutamyl)indoline-2(S)-carboxylic acid]		
7.73	NCCCC[C@H](N)C(=O)N[C@H](CCC(=O)N1c2ccccc2C[C@H]1C(=O)O)C(=O)O [1-(L-lysyl-γ-D-glutamyl)indoline-2(S)carboxylic acid, reference compound]		antihypertensive action after oral administration [1]: do not show any significant antihypertensive action; in vitro inhibition of ACE [4]: show in vitro inhibition of ACE
8.17	NCCCC[C@H](NC(=O)c1ccccn1)C(=O)N[C@H](CCC(=O)N1[C@H](C(=O)O)C[C@@H]2CCCC[C@@H]21)C(=O)O [Example 20, (2S,3aS,7aS)-1-[N^2-(Pyridine-2-carbonyl)-L-lysyl-gamma-D-glutamyl]octahydro-1H-indole-2-carboxylic acid]		

SMILES	pIC50 [2]	Charge in pressure at 9 hours administration ([1]; dose of 10 mg/kg)	other results
NCCCC[C@H](NC(=O)c1cccnc1)C(=O)N[C@H](CCC(=O)N1[C@H](C(=O)O)C[C@@H]2CCCC[C@@H]21)C(=O)O [Example 15, (2S,3aS,7aS)-1-(N^2 -Nicotinoyl-L-lysyl-gamma-D-glutamyl)octahydro-1H-indole-2-carboxylic acid] (Nicotinoyl-Lys-[d(γGlu)]-[Oic]-OH)	8.19		oral LD50 [3]: more than 3,000 mg per kilogram of body weight
NCCCC[C@H](NC(=O)c1cccnc1)C(=O)N[C@H](CCC(=O)N1[C@H](C(=O)O)C[C@@H]2CCCC[C@@H]21)C(=O)O [Example 69, Monosodium (2S,3aS,7aS)-1-(N^2-nicotinoyl-L-lysyl-gamma-D-glutamyl)octahydro-1H-indole-2-carboxylate] (Nicotinoyl-Lys-[d(γGlu)]-[Oic]-OH)	8.11		
NCCCC[C@H](NC(=O)c1ccc(O)cc1)C(=O)N[C@H](CCC(=O)N1[C@H](C(=O)O)C[C@@H]2CCCC[C@@H]21)C(=O)O [Example 51, (2S,3aS,7aS)-1-[N^2-(4-Hydroxybenzoyl)-L-lysyl-gamma-D-glutamyl)octahydro-1H-indole-2-carboxylic acid]	8.28		oral LD50 [3]: more than 3,000 mg per kilogram of body weight
